Measurements published in patent US10906878B2, “Kinase inhibitors for the treatment of disease” (Dana-Farber Cancer Institute, Inc., priority 2013, dated 2021).

Key:
Format in all cases: cell-based
[1] = molecular target: EGFR Del Ba/F3 cells (Homo sapiens, UniProt P00533, cells depend on it, form not given); experiment: Ba/F3 cell growth inhibition (MTS assay), EGFR Del
Excerpt: (§1) The specific cDNAs encoding the oncogenic alterations (EGFR: Del 19, L858R, L718Q, L844V, Del/T790M, L858R/T790M, Del 19/L718Q, Del 19/L844V, Del 19/T790M/L718Q and L858R/T790M/L718Q; FGFR: TEL-FGFR1, TEL-FGFR2, TEL-FGFR1 V561M, TEL-FGFR2 V561M; ALK: EML4-ALK; ROS1: CD74-ROS1) were cloned into the pDNA-Dual (BD Biosciences) vector using standard molecular biology techniques. Mutations were introduced using site-directed mutagenesis (Agilent) with mutant specific primers according to the manufacturer's instructions. All constructs were confirmed by DNA sequencing. The constructs were introduced into Ba/F3 cells using retroviral infection. Polyclonal cell lines were established by puromycin selection and subsequently cultured in the absence of interleukin-3 (IL-3). Uninfected Ba/F3 cells or cell lines expressing green fluorescent protein (GFP) were used as controls.
(§2) Growth and inhibition of growth was assessed by MTS assay. This assay, a colorimetric method for determining the number of viable cells, is based on the bioreduction of 3-(4,5-dimethylthiazol-2-yl)-5-(3-carboxymethoxyphenyl)-2-(4-sulfophenyl)-2H-tetrazolium (MTS) by cells to a formazan product that is soluble in cell culture medium, can be detected spectrophotometrically and was performed according to the manufacturer's recommended conditions. Ba/F3 cells were exposed to treatment for 72 hours and the number of cells used per experiment determined empirically to assure linear growth kinetics over that time period. All experimental points were set up in six to twelve wells and all experiments were repeated at least three times. […] The curves were fitted using a non-linear regression model with a sigmoidal dose response.

[2] = molecular target: EGFR Del/T790M Ba/F3 cells (Homo sapiens, UniProt P00533, T790M, cells depend on it, form not given); experiment: Ba/F3 cell growth inhibition (MTS assay), EGFR Del/T790M; conditions: for EGFR activity (% Control, 100 nM drug) DEL/T790M: Table F; for EGFR activity (% Control, 100 nM drug) Del/T790M: Table G
Excerpt: as §1, §2

[3] = molecular target: EGFR L858R/T790M Ba/F3 cells (Homo sapiens (Human), UniProt P00533, L858R/T790M); experiment: Ba/F3 cell growth inhibition (MTS assay), EGFR L858R/T790M
Excerpt: as §1, §2

[4] = molecular target: EGFR L718Q/L858R Ba/F3 cells (Homo sapiens (Human), UniProt P00533, L718Q/L858R); experiment: Ba/F3 cell growth inhibition (MTS assay), EGFR L858R/L718Q; conditions: for EGFR activity (% Control, 100 nM drug) L858R/L718Q: Table F
[5] = molecular target: EGFR L858R/T790M/L718Q Ba/F3 cells (Homo sapiens (Human), UniProt P00533, L718Q/L858R/T790M); experiment: Ba/F3 cell growth inhibition (MTS assay), EGFR L858R/T790M/L718Q; conditions: for EGFR activity (% Control, 100 nM drug) L858R/T790M/L718Q: Table F
Excerpt: as §1, §2

[6] = molecular target: EGFR L858R Ba/F3 cells (Homo sapiens (Human), UniProt P00533, L858R); experiment: Ba/F3 cell growth inhibition (MTS assay), EGFR L858R
Excerpt: as §1, §2

Row | SMILES | EGFR activity (% Control, 100 nM drug) Del ([1]; Table G) | EGFR activity (% Control, 100 nM drug) Del/T790M [2] | EGFR activity (% Control, 100 nM drug) L858R/T790M ([3]; Table G) | EGFR activity (% Control, 100 nM drug) L858R ([6]; Table G) | further results
1 | C=CC(=O)Nc1cccc(N(C(=O)NCc2ccccc2)c2cc(NC)ncn2)c1 [Compound 15A] |  |  |  |  | EGFR activity (% Control, 100 nM drug) Del ([1]; Table F): 47 % Control; IC50 ([1]; Assay 1, Del, read-out: EGFR Ba/F3 cells IC 50 (nM) Assay 1 Del): 91.9 nM; EGFR activity (% Control, 100 nM drug) DEL/T790M [2]: 107 % Control; IC50 ([2]; Assay 1, Del/T790M, read-out: EGFR Ba/F3 cells IC 50 (nM) Assay 1 Del/T790M): 842 nM; EGFR activity (% Control, 100 nM drug) L858R/T790M ([3]; Table F): 48 % Control; IC50 ([3]; Assay 1, L858R/T790M, read-out: EGFR Ba/F3 cells IC 50 (nM) Assay 1 L858R/T790M): 376 nM; EGFR activity (% Control, 100 nM drug) L858R/L718Q [4]: 81 % Control; IC50 ([4]; Assay 1, L718Q/L858R, read-out: EGFR Ba/F3 cells IC 50 (nM) Assay 1 L718Q/L858R): 2150 nM; EGFR activity (% Control, 100 nM drug) L858R/T790M/L718Q [5]: 86 % Control; IC50 ([5]; Assay 1, T/L/L718Q, read-out: EGFR Ba/F3 cells IC 50 (nM) Assay 1 T/L/L718Q): 3260 nM; EGFR activity (% Control, 100 nM drug) L858R ([6]; Table F): 3 % Control; IC50 ([6]; Assay 1, L858R, read-out: EGFR Ba/F3 cells IC 50 (nM) Assay 1 L858R): 17.7 nM
2 | C=CC(=O)Nc1ccc(OC)c(Nc2cc(N(C)C(=O)Nc3ccc(F)c(Cl)c3)ncn2)c1 [Compound 18A] |  |  |  |  | EGFR activity (% Control, 100 nM drug) Del ([1]; Table F): 30 % Control; EGFR activity (% Control, 100 nM drug) DEL/T790M [2]: 84 % Control; EGFR activity (% Control, 100 nM drug) L858R/T790M ([3]; Table F): 85 % Control; EGFR activity (% Control, 100 nM drug) L858R/L718Q [4]: 88 % Control; EGFR activity (% Control, 100 nM drug) L858R/T790M/L718Q [5]: 92 % Control; EGFR activity (% Control, 100 nM drug) L858R ([6]; Table F): 1 % Control
3 | C=CC(=O)N1CCC[C@H]1C(=O)Nc1cc2c(N(C)C(=O)Nc3ccccc3)ncnc2cc1OC [Compound 27A] | 95 % Control | 76 % Control | 102 % Control | 87 % Control | 
4 | C=CC(=O)N1CCC[C@H]1C(=O)Nc1cc2c(N(C)C(=O)NCc3ccccc3)ncnc2cc1OC [Compound 5A, (S)-1-acryloyl-N-(4-(3-benzyl-1-methylureido)-7-methoxyquinazolin-6-yl)pyrrolidine-2-carboxamide] | 100 % Control | 110 % Control | 96 % Control | 107 % Control | 
5 | C=CC(=O)Nc1cccc(Nc2cc(N(C(=O)NCc3ccccc3)c3ccc(N4CCN(C)CC4)cc3)ncn2)c1 [Compound 30A] | 94 % Control | 104 % Control | 103 % Control | 10 % Control | 
6 | COc1cc2ncnc(N(C)C(=O)Nc3ccccc3)c2cc1NC(=O)[C@@H]1CCCN1C(=O)CCl [Compound 28A] | 102 % Control | 83 % Control | 97 % Control | 94 % Control | 
7 | C=CC(=O)N1CCC[C@@H]1C(=O)Nc1ccc(OC)c(Nc2cc(N(C)C(=O)NCc3ccccc3)ncn2)c1 [Compound 24A] | 95 % Control | 101 % Control | 108 % Control | 84 % Control | 
8 | C=CC(=O)N1CC[C@H](CN(C(=O)Nc2ccccc2)c2cc(Nc3ccc(N4CCN(C)CC4)cc3OC)ncn2)C1 [Compound 33A] | 102 % Control | 109 % Control | 106 % Control | 101 % Control | 
